{"source": "the supplement of paper PMC10307832", "assay_in_all_cases": "relative viability (nuclei count vs DMSO), 5 days (fraction); higher = more cells survive", "key": {"[1]": {"system": "COR-L23", "summary_of_the_method": "(§1)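 Lung cancer cell lines were pin-tool dosed in 1536-well plates on the day after seeding, with either a lone drug or a fixed anchor-drug dose plus five library-drug doses (not always all listed) in √10 steps. Nuclei were counted on 4× images after 5 days. Relative viability is the ratio of treated-well to vehicle-well nuclei counts, with each value a median of duplicate plates.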"}, "[2]": {"system": "NCI-H1650", "summary_of_the_method": "as §1"}, "[3]": {"system": "A-427", "summary_of_the_method": "as §1"}, "[4]": {"system": "SK-MES-1", "summary_of_the_method": "as §1"}, "[5]": {"system": "ChaGo-K-1", "summary_of_the_method": "as §1"}, "[6]": {"system": "NCI-H650", "summary_of_the_method": "as §1"}, "[7]": {"system": "NCI-H1915", "summary_of_the_method": "as §1"}, "[8]": {"system": "NCI-H3122", "summary_of_the_method": "as §1"}, "[9]": {"system": "NCI-H661", "summary_of_the_method": "as §1"}, "[10]": {"system": "NCI-H2087", "summary_of_the_method": "as §1"}, "[11]": {"system": "EKVX", "summary_of_the_method": "as §1"}, "[12]": {"system": "LOU-NH91", "summary_of_the_method": "as §1"}, "[13]": {"system": "HCC-366", "summary_of_the_method": "as §1"}, "[14]": {"system": "HOP-62", "summary_of_the_method": "as §1"}, "[15]": {"system": "EPLC-272H", "summary_of_the_method": "as §1"}, "[16]": {"system": "NCI-H2023", "summary_of_the_method": "as §1"}, "[17]": {"system": "NCI-H1734", "summary_of_the_method": "as §1"}, "[18]": {"system": "NCI-H358", "summary_of_the_method": "as §1"}, "[19]": {"system": "NCI-H1395", "summary_of_the_method": "as §1"}, "[20]": {"system": "HCC-78", "summary_of_the_method": "as §1"}, "[21]": {"system": "NCI-H838", "summary_of_the_method": "as §1"}, "[22]": {"system": "NCI-H596", "summary_of_the_method": "as §1"}}, "data": [{"smiles": "Cc1cnc(-c2cnc(NCCNc3ccc(C#N)cn3)nc2-c2ccc(Cl)cc2Cl)[nH]1", "note": "+ Cc1nc(Nc2ncc(C(=O)Nc3c(C)cccc3Cl)s2)cc(N2CCN(CCO)CC2)n1 [Dasatinib] (partner 0.075 µM)", "values": [{"measurement": "relative viability", "setting": "[1]; first compound 0.253 µM", "value": 0.419}, {"measurement": "relative viability", "setting": "[1]; first compound 0.8 µM", "value": 0.51}, {"measurement": "relative viability", "setting": "[1]; first compound 2.53 µM", "value": 0.5}, {"measurement": "relative viability", "setting": "[2]; first compound 0.08 µM", "value": 0.31}, {"measurement": "relative viability", "setting": "[2]; first compound 0.253 µM", "value": 0.345}, {"measurement": "relative viability", "setting": "[2]; first compound 0.8 µM", "value": 0.295}, {"measurement": "relative viability", "setting": "[2]; first compound 2.53 µM", "value": 0.312}, {"measurement": "relative viability", "setting": "[3]; first compound 0.08 µM", "value": 0.747}, {"measurement": "relative viability", "setting": "[3]; first compound 0.253 µM", "value": 0.589}, {"measurement": "relative viability", "setting": "[3]; first compound 0.8 µM", "value": 0.738}, {"measurement": "relative viability", "setting": "[3]; first compound 2.53 µM", "value": 0.682}, {"measurement": "relative viability", "setting": "[4]; first compound 0.08 µM", "value": 0.332}, {"measurement": "relative viability", "setting": "[4]; first compound 0.253 µM", "value": 0.425}, {"measurement": "relative viability", "setting": "[4]; first compound 0.8 µM", "value": 0.401}, {"measurement": "relative viability", "setting": "[4]; first compound 2.53 µM", "value": 0.247}, {"measurement": "relative viability", "setting": "[5]; first compound 0.08 µM", "value": 0.607}, {"measurement": "relative viability", "setting": "[5]; first compound 0.253 µM", "value": 0.462}, {"measurement": "relative viability", "setting": "[5]; first compound 0.8 µM", "value": 0.512}, {"measurement": "relative viability", "setting": "[5]; first compound 2.53 µM", "value": 0.515}, {"measurement": "relative viability", "setting": "[6]; first compound 0.08 µM", "value": 0.497}, {"measurement": "relative viability", "setting": "[6]; first compound 0.253 µM", "value": 0.462}, {"measurement": "relative viability", "setting": "[6]; first compound 0.8 µM", "value": 0.511}, {"measurement": "relative viability", "setting": "[6]; first compound 2.53 µM", "value": 0.495}, {"measurement": "relative viability", "setting": "[7]; first compound 0.08 µM", "value": 0.339}, {"measurement": "relative viability", "setting": "[7]; first compound 0.253 µM", "value": 0.294}, {"measurement": "relative viability", "setting": "[7]; first compound 0.8 µM", "value": 0.342}, {"measurement": "relative viability", "setting": "[7]; first compound 2.53 µM", "value": 0.311}, {"measurement": "relative viability", "setting": "[8]; first compound 0.08 µM", "value": 0.859}, {"measurement": "relative viability", "setting": "[8]; first compound 0.8 µM", "value": 0.714}, {"measurement": "relative viability", "setting": "[8]; first compound 2.53 µM", "value": 0.528}, {"measurement": "relative viability", "setting": "[9]; first compound 0.08 µM", "value": 1.04}, {"measurement": "relative viability", "setting": "[9]; first compound 0.253 µM", "value": 0.778}, {"measurement": "relative viability", "setting": "[9]; first compound 0.8 µM", "value": 0.845}, {"measurement": "relative viability", "setting": "[9]; first compound 2.53 µM", "value": 0.794}, {"measurement": "relative viability", "setting": "[10]; first compound 0.08 µM", "value": 0.837}, {"measurement": "relative viability", "setting": "[10]; first compound 0.253 µM", "value": 0.698}, {"measurement": "relative viability", "setting": "[10]; first compound 0.8 µM", "value": 0.919}, {"measurement": "relative viability", "setting": "[10]; first compound 2.53 µM", "value": 0.614}, {"measurement": "relative viability", "setting": "[11]; first compound 0.08 µM", "value": 0.608}, {"measurement": "relative viability", "setting": "[11]; first compound 0.253 µM", "value": 0.518}, {"measurement": "relative viability", "setting": "[11]; first compound 0.8 µM", "value": 0.494}, {"measurement": "relative viability", "setting": "[11]; first compound 2.53 µM", "value": 0.493}, {"measurement": "relative viability", "setting": "[12]; first compound 0.08 µM", "value": 0.562}, {"measurement": "relative viability", "setting": "[12]; first compound 0.253 µM", "value": 0.558}, {"measurement": "relative viability", "setting": "[12]; first compound 0.8 µM", "value": 0.55}, {"measurement": "relative viability", "setting": "[12]; first compound 2.53 µM", "value": 0.514}, {"measurement": "relative viability", "setting": "[13]; first compound 0.08 µM", "value": 0.67}, {"measurement": "relative viability", "setting": "[13]; first compound 0.253 µM", "value": 0.545}, {"measurement": "relative viability", "setting": "[13]; first compound 0.8 µM", "value": 0.618}, {"measurement": "relative viability", "setting": "[13]; first compound 2.53 µM", "value": 0.595}, {"measurement": "relative viability", "setting": "[14]; first compound 0.08 µM", "value": 0.67}, {"measurement": "relative viability", "setting": "[14]; first compound 0.253 µM", "value": 0.668}, {"measurement": "relative viability", "setting": "[14]; first compound 0.8 µM", "value": 0.709}, {"measurement": "relative viability", "setting": "[14]; first compound 2.53 µM", "value": 0.749}, {"measurement": "relative viability", "setting": "[15]; first compound 0.253 µM", "value": 0.374}, {"measurement": "relative viability", "setting": "[15]; first compound 0.8 µM", "value": 0.409}, {"measurement": "relative viability", "setting": "[15]; first compound 2.53 µM", "value": 0.397}, {"measurement": "relative viability", "setting": "[16]; first compound 0.08 µM", "value": 0.811}, {"measurement": "relative viability", "setting": "[16]; first compound 0.253 µM", "value": 0.532}, {"measurement": "relative viability", "setting": "[16]; first compound 0.8 µM", "value": 0.599}, {"measurement": "relative viability", "setting": "[16]; first compound 2.53 µM", "value": 0.636}, {"measurement": "relative viability", "setting": "[17]; first compound 0.08 µM", "value": 0.461}, {"measurement": "relative viability", "setting": "[17]; first compound 0.253 µM", "value": 0.417}, {"measurement": "relative viability", "setting": "[17]; first compound 0.8 µM", "value": 0.467}, {"measurement": "relative viability", "setting": "[17]; first compound 2.53 µM", "value": 0.415}, {"measurement": "relative viability", "setting": "[18]; first compound 0.08 µM", "value": 0.157}, {"measurement": "relative viability", "setting": "[18]; first compound 0.253 µM", "value": 0.17}, {"measurement": "relative viability", "setting": "[18]; first compound 0.8 µM", "value": 0.207}, {"measurement": "relative viability", "setting": "[18]; first compound 2.53 µM", "value": 0.189}, {"measurement": "relative viability", "setting": "[19]; first compound 0.08 µM", "value": 0.405}, {"measurement": "relative viability", "setting": "[19]; first compound 0.253 µM", "value": 0.401}, {"measurement": "relative viability", "setting": "[19]; first compound 0.8 µM", "value": 0.443}, {"measurement": "relative viability", "setting": "[19]; first compound 2.53 µM", "value": 0.432}, {"measurement": "relative viability", "setting": "[20]; first compound 0.08 µM", "value": 0.434}, {"measurement": "relative viability", "setting": "[20]; first compound 0.253 µM", "value": 0.364}, {"measurement": "relative viability", "setting": "[20]; first compound 0.8 µM", "value": 0.41}, {"measurement": "relative viability", "setting": "[20]; first compound 2.53 µM", "value": 0.371}, {"measurement": "relative viability", "setting": "[21]; first compound 0.08 µM", "value": 0.276}, {"measurement": "relative viability", "setting": "[21]; first compound 0.253 µM", "value": 0.307}, {"measurement": "relative viability", "setting": "[21]; first compound 0.8 µM", "value": 0.306}, {"measurement": "relative viability", "setting": "[21]; first compound 2.53 µM", "value": 0.363}, {"measurement": "relative viability", "setting": "[22]; first compound 0.08 µM", "value": 0.601}, {"measurement": "relative viability", "setting": "[22]; first compound 0.253 µM", "value": 0.656}, {"measurement": "relative viability", "setting": "[22]; first compound 0.8 µM", "value": 0.624}, {"measurement": "relative viability", "setting": "[22]; first compound 2.53 µM", "value": 0.607}]}]}
